Test results from patent US20070060586A1, “Nitrooxyderivatives of antihypertensive drugs” (priority 2003, published 2007).
pEC50: −log10 of the molar value. Structures can show the parent of a compound that is named as a salt.

System: PC12 cells
Experiment: Measurements of cGMP in rat PC12 cell line (intracellular cGMP formation, enzyme immunoassay)
Type: cell-based
Conditions: for pEC50: PC-12, 0.75 h
Description: Measurements of CGMP in Rat PC12 Cell Line.
cGMP contributes to the function and interaction of several vascular cell types and its dysfunction is involved in major cardiovascular diseases such as hypertension, diabetic complications, atherosclerosis, and tissue infarction. Therefore the extent of cGMP formation elicited by the compounds of the inventions was evaluated in the rat pheochromocytoma (PC12) cell line.
Cells were maintained at 37° C. in DMEM medium enriched with 10% horse serum and 5% foetal bovine serum under 5% CO2 atmosphere. At the time of experiments the cells were washed once with Hank's Balanced Salt Solution (HBSS) supplemented with 0.05% ascorbic acid and preincubated in the same buffer for 10 min in a floating water bath. After the preincubation step, cells were exposed for additional 45 min to either control conditions or increasing concentrations of test compounds ranging from 0.1 to 25 μM, in the presence of the phosphodiesterase inhibitor, IBMX (100 μM) and the NO-independent activator of soluble guanylyl cyclase, YC-1 (20 μM). The reaction was terminated by the removal of the incubating buffer and consecutive addition of 100 μl of absolute ethanol. The organic extracts were then evaporated to dryness and the residues dissolved in aqueous buffer for quantitative determination of intracellular cGMP levels using the cGMP enzyme immunoassay kit.
The obtained results reported in Table 1 are expressed as EC50 (μM) and efficacy Emax (% of vehicle). As shown in the table the nitroderivatives of timolol elicited consistent increase of intracellular cGMP formation in PC12 cell line.

[1] = 45 min exposure, 0.1 to 25 μM, in the presence of IBMX (100 μM) and YC-1 (20 μM)

pEC50 [1]	EC50, cGMP formation in PC12 cells [1]	SMILES	Emax (% of vehicle), cGMP formation in PC12 cells [1]	increase of intracellular cGMP formation in PC12 cell line (in words) (summary statement to Table 1)
–	–	CC(C)(C)NCC(COc1nsnc1N1CCOCC1)OC(=O)c1ccc(CO[N+](=O)[O-])cc1.O=C(O)/C=C\C(=O)O [Compound of example 1, 4-(Nitrooxymethyl)benzoic acid (S)-1-[(1,1-dimethylethyl)amino]-3-[[4-(4-morpholinyl)-1,2,5thiadiazol-3-yl]oxy]-2-propanoate maleate salt]	796 % of vehicle	–
4.90	–	CC(C)(C)NC[C@@H](COc1nsnc1N1CCOCC1)OC(=O)c1ccc(CO[N+](=O)[O-])cc1 [Compound of example 1, 4-(Nitrooxymethyl)benzoic acid (S)-1-[(1,1-dimethylethyl)amino]-3-[[4-(4-morpholinyl)-1,2,5thiadiazol-3-yl]oxy]-2-propanoate maleate salt]	–	–
4.73	–	CC(C)(C)N(C[C@H](O)COc1nsnc1N1CCOCC1)C(=O)c1ccc(CO[N+](=O)[O-])cc1 [Compound of example 3, (S)-1-[(1,1-dimethylethyl)[(4-nitrooxymethyl)benzoyl]amino]-3-[[4-(4-morpholinyl)-1,2,5-thiadiazol-3-yl]oxy]-2-propanol]	866 % of vehicle	–
–	Not effective	CC(C)(C)NC[C@H](O)COc1nsnc1N1CCOCC1 [Timolol, reference compound]	Not effective	this effect was not shared

SMILES	pEC50 [1]	EC50, cGMP formation in PC12 cells [1]	Emax (% of vehicle), cGMP formation in PC12 cells [1]	increase of intracellular cGMP formation in PC12 cell line (in words) (summary statement to Table 1)
CC(C)(C)N(CC(COc1nsnc1N1CCOCC1)OC(=O)c1ccc(CO[N+](=O)[O-])cc1)C(=O)c1ccc(CO[N+](=O)[O-])cc1 [Compound of example 2, 4-(Nitrooxymethyl)benzoic acid (S)-1-[(1,1-dimethylethyl)[(4-nitrooxymethyl)benzoyl]amino]-3-[[4-(4-morpholinyl)-1,2,5-thiadiazol-3-yl]oxy]-2-propanoate]	5.89	–	480 % of vehicle	–
